From ChEMBL document CHEMBL1131389, “Unusual synthesis of new glycine antagonists via sequential aldol condensation-lactonization-elimination reaction” (Bioorg Med Chem Lett, 1998) come the findings set out here.

The experiment has as its target Glutamate receptor ionotropic, NMDA 1 (Rattus norvegicus) (UniProt P35439). Kind of experiment: In vitro affinity of compound for the glycinergic site associated with NMDA receptor was assessed by inhibition of the binding of [3H]glycine.

In the case of `O=C(O)c1[nH]c2cc(Cl)cc(Cl)c2c1/C=C1\CCCN(c2ccccc2)C1=O`, the pKi worked out at 7.3.
As to `O=C(O)c1[nH]c2cc(Cl)cc(Cl)c2c1/C=C1\CCN(c2ccccc2)C1=O`, the pKi came out at 7.5.
